Key:
Experiment in all cases: Fluorescence Polarization Assay
Conditions in all cases: pH 7.35
[1] = biological target: T1, Tyrosine-protein kinase transforming protein Src [144-247] (Rous sarcoma virus subgroup B (strain Schmidt-Ruppin), UniProt P00524)
T1 construct: 144-247
Method: (§1) Three fluorescein-labeled peptide probes, FITC-sulfopeptide, FITC-phosphopeptide, and FITC-tyrosinepeptide (FITC, fluorescein isothiocyanate), were used. Individual peptide probes were dissolved in assay buffer containing potassium phosphate (20 mM, pH 7.35), NaCl (100 mM), DTT (2 mM), and bovine gamma globulin (0.1%). Aliquots of the peptide probe solution were distributed to 96-well fluorescence plate to reach a final concentration of 10 nM. After the addition of indicated amounts of SH2 domain protein, the assay solutions were mixed and incubated at RT in the dark for 25 min. Fluorescence polarization experimentswere performed on a Synergy H1 plate reader (BioTek Instruments, Inc.) equipped with standard filter cube (λEx = 485 nm, BP = 20 nm; λEm = 528 nm, BP = 20 nm). A standard sample layout in a 96-well plate was designed so that a single plate contains all the samples for one SH2 domain variant. Triplicate samples at each protein concentration were arrayed in the plat

[2] = biological target: T2, Tyrosine-protein kinase transforming protein Src [144-247,E177Q,S178L,E179A,T180R,T181V,C186A,K201L] (Rous sarcoma virus subgroup B (strain Schmidt-Ruppin), UniProt P63185, C186A/E177Q/E179A/K201L/S178L/T180R/T181V)
T2 construct: 144-247
Method: as §1

[3] = biological target: T3, Tyrosine-protein kinase transforming protein Src [144-247,T181V,C186A,K201L] (Rous sarcoma virus subgroup B (strain Schmidt-Ruppin), UniProt P63185, C186A/K201L/T181V)
T3 construct: 144-247
Method: as §1

[4] = biological target: T4, Tyrosine-protein kinase transforming protein Src [144-247,E177R,S178L,E179Q,T180R,T181V,C186A,K201L] (Rous sarcoma virus subgroup B (strain Schmidt-Ruppin), UniProt P63185, C186A/E177R/E179Q/K201L/S178L/T180R/T181V)
T4 construct: 144-247
Method: as §1

T2 sequence (P63185 144-247 E176Q/S177L/E178A/T179R/T180V/C185A/K200L): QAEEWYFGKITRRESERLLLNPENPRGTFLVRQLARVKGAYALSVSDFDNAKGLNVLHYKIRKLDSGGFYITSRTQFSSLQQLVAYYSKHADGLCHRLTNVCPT
T4 sequence (P63185 144-247 E176R/S177L/E178Q/T179R/T180V/C185A/K200L): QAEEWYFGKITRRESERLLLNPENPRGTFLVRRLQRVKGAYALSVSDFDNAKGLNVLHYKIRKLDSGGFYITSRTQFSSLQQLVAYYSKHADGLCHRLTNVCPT
T3 sequence (P63185 144-247 T180V/C185A/K200L): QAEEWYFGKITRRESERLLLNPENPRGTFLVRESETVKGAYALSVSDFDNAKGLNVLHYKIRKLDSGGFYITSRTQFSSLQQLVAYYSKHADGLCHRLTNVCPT
T1 sequence (P00524 144-247): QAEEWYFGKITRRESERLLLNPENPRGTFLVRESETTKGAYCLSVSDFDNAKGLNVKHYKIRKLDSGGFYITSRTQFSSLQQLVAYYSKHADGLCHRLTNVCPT

| Structure (SMILES) | Kd [1] | Kd [2] | Kd [3] | Kd [4] |
| --- | --- | --- | --- | --- |
| N[C@@H](Cc1ccc(OP(=O)(O)O)cc1)C(=O)O [Phosphotyrosine (pTyr)] | 61 nM | 7.7 nM | 4.9 nM | 2.5 nM |
| N[C@@H](Cc1ccc(OS(=O)(=O)O)cc1)C(=O)O [Sulfotyrosine (sTyr)] | 9620 nM | 10.4 nM | 349 nM | 5.6 nM |

From BindingDB's records for doi:10.1021/acschembio.6b00555 (University of Nebraska-Lincoln, 2016)
